In patent US11254668B2, “Pyrazolo[1,5-A]pyrazin-4-yl and related derivatives” (Pfizer Inc., priority 2017, dated 2022):

Experiments:
Format in all cases: biochemical
TYK2 = TYK2 (Homo sapiens (Human), UniProt P29597); experiment: JAK Caliper Enzyme Assay at 1 mM ATP, TYK2
How it was run: (§1)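 Read-out is Caliper LabChip mobility-shift separation of phosphorylated from unphosphorylated fluorescent peptide after EDTA termination. Each JAK kinase domain (human, recombinant) runs at 1 mM ATP at room temperature, adjusted for 20–30% turnover. Inhibition is normalized to DMSO and positive-control wells and plotted against concentration.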

JAK1 = JAK1 (Homo sapiens (Human), UniProt P23458); experiment: JAK Caliper Enzyme Assay at 1 mM ATP, JAK1
How it was run: (§2)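 Recombinant human kinase domains phosphorylate a fluorescent synthetic peptide at 1 mM ATP, room temperature, with enzyme and time tuned for 20-30% conversion; EDTA-stopped. Product/substrate separated by microfluidic mobility shift; percent effect versus DMSO and positive controls fitted to IC50 (nM).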

JAK2 = JAK2 (Homo sapiens (Human), UniProt O60674); experiment: JAK Caliper Enzyme Assay at 1 mM ATP, JAK2
How it was run: as §1

JAK3 = JAK3 (Homo sapiens (Human), UniProt P52333); experiment: JAK Caliper Enzyme Assay at 1 mM ATP, JAK3
How it was run: as §2

Chain of JAK2 (O60674 849-1124): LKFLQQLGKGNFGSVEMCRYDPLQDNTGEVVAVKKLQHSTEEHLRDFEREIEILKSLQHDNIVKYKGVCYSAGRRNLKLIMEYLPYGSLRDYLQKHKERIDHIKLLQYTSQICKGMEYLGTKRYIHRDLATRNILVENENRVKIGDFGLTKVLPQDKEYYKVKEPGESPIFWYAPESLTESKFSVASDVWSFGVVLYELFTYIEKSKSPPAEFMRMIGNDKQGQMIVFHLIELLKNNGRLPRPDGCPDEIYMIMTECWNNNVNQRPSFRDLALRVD
Chain of JAK1 (P23458 875-1153): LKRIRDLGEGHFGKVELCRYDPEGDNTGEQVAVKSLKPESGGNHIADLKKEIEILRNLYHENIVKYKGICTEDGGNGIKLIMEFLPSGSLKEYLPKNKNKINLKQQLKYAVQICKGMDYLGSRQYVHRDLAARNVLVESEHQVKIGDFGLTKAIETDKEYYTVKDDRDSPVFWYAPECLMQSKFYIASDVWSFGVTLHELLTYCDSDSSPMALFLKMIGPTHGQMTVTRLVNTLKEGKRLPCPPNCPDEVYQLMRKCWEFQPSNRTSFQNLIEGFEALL
Chain of TYK2 (P29597 897-1176): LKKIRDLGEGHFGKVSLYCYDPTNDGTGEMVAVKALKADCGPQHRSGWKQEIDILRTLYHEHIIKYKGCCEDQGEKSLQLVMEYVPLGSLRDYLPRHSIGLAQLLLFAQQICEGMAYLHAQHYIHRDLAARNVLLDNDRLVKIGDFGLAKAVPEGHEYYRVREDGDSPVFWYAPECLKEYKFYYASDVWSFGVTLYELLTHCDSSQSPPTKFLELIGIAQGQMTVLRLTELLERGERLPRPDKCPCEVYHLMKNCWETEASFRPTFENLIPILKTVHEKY
Chain of JAK3 (P52333 822-1111): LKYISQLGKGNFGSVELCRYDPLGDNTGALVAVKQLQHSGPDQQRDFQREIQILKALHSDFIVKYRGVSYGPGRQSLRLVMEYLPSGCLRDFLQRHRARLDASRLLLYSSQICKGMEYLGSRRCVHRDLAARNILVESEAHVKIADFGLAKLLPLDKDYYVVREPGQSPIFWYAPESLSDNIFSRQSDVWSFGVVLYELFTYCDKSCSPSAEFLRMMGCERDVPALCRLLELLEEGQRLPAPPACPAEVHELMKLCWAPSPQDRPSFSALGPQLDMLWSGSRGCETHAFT

Row | SMILES | IC50 (TYK2) [nM] | IC50 (JAK1) [nM] | IC50 (JAK2) [nM] | IC50 (JAK3) [nM]
1 | Cc1cc(-c2cc3ncccc3c(-c3ccn([C@]4(CC#N)C[C@@H](C#N)C4)n3)n2)cc(N)n1 [Example 220, trans-3-{3-[7-(2-amino-6-methylpyridin-4-yl)-1,6-naphthyridin-5-yl]-1H-pyrazol-1-yl}-3-(cyanomethyl)cyclobutanecarbonitrile] | 92 | 2140 | 768 | > 10000
2 | Cc1ncc(-c2cc3ncccc3c(-c3ccn(C4(CC#N)CN(S(C)(=O)=O)C4)n3)n2)cc1O [Example 222, [3-{3-[7-(5-hydroxy-6-methylpyridin-3-yl)-1,6-naphthyridin-5-yl]-1H-pyrazol-1-yl}-1-(methylsulfonyl)azetidin-3-yl]acetonitrile] | 57 | > 10000 | 1300 | > 10000
3 | N#CC[C@]1(n2ccc(-c3nc(-c4ccc(O)c(C(N)=O)n4)cc4ncccc34)n2)C[C@H](C#N)C1 [Example 227, 6-(5-{1-[cis-3-cyano-1-(cyanomethyl)cyclobutyl]-1H-pyrazol-3-yl}-1,6-naphthyridin-7-yl)-3-hydroxypyridine-2-carboxamide] | 1180 | > 10000 | 9300 | > 10000
4 | CS(=O)(=O)N1CC(CC#N)(n2ccc(-c3nc(-c4cnc(N)c(N)c4)cc4ncccc34)n2)C1 [Example 229, [3-{3-[7-(5,6-diaminopyridin-3-yl)-1,6-naphthyridin-5-yl]-1H-pyrazol-1-yl}-1-(methylsulfonyl)azetidin-3-yl]acetonitrile] | 81 | 2460 | 1000 | > 10000
5 | CC(=O)Nc1cc(-c2cc3ncccc3c(-c3ccn(C4(CC#N)CN(S(C)(=O)=O)C4)n3)n2)cnc1NC(C)=O [Example 231, N,N′-[5-(5-{1-[3-(cyanomethyl)-1-(methylsulfonyl)azetidin-3-yl]-1H-pyrazol-3-yl}-1,6-naphthyridin-7-yl)pyridine-2,3-diyl]diacetamide] | 948 | 5760 | 7900 | > 10000
6 | N#CCC1(n2ccc(-c3nc(-c4cnc5c(c4)CCC5)cc4ncccc34)n2)CN(CC(F)(F)F)C1 [Example 232] | 1510 | > 10000 | 5820 | > 10000
7 | N#CCC1(n2ccc(-c3nc(-c4cncnc4)cc4ncccc34)n2)CN(CC(F)(F)F)C1 [Example 234, [3-{3-[7-(pyrimidin-5-yl)-1,6-naphthyridin-5-yl]-1H-pyrazol-1-yl}-1-(2,2,2-trifluoroethyl)azetidin-3-yl]acetonitrile] | 2660 | > 10000 | > 10000 | > 10000
8 | CS(=O)(=O)N1CC(CC#N)(n2ccc(-c3nc(-c4cncnc4)cc4ncccc34)n2)C1 [Example 235, [1-(methylsulfonyl)-3-{3-[7-(pyrimidin-5-yl)-1,6-naphthyridin-5-yl]-1H-pyrazol-1-yl}azetidin-3-yl]acetonitrile] | 5510 | > 10000 | > 10000 | > 10000
9 | COc1ncc(-c2cc3ncccc3c(-c3ccn(C4(CC#N)CN(S(C)(=O)=O)C4)n3)n2)cn1 [Example 237, [3-{3-[7-(2-methoxypyrimidin-5-yl)-1,6-naphthyridin-5-yl]-1H-pyrazol-1-yl}-1-(methylsulfonyl)azetidin-3-yl]acetonitrile] | 2040 | > 10000 | > 10000 | > 10000
10 | N#CC[C@]1(n2ccc(-c3nc(-c4cnnc(N)c4)cc4ncccc34)n2)C[C@H](C#N)C1 [Example 239, trans-3-{3-[7-(6-aminopyridazin-4-yl)-1,6-naphthyridin-5-yl]-1H-pyrazol-1-yl}-3-(cyanomethyl)cyclobutanecarbonitrile] | 96 | 3720 | 1120 | > 10000
11 | N#CC[C@]1(n2ccc(-c3nc(-c4cnnc(N)c4)cc4ncccc34)n2)C[C@@H](C#N)C1 [Example 240, cis-3-{3-[7-(6-aminopyridazin-4-yl)-1,6-naphthyridin-5-yl]-1H-pyrazol-1-yl}-3-(cyanomethyl)cyclobutanecarbonitrile] | 48 | 1280 | 448 | > 10000
12 | N#CC[C@]1(n2ccc(-c3nc(-c4cc(N)cnn4)cc4ncccc34)n2)C[C@@H](C#N)C1 [Example 242, cis-3-{3-[7-(5-aminopyridazin-3-yl)-1,6-naphthyridin-5-yl]-1H-pyrazol-1-yl}-3-(cyanomethyl)cyclobutanecarbonitrile] | 503 | > 10000 | 3770 | > 10000
13 | N#CC[C@]1(n2ccc(-c3nc(-c4ccnc(C(N)=O)n4)cc4ncccc34)n2)C[C@H](C#N)C1 [Example 244, 4-(5-{1-[cis-3-cyano-1-(cyanomethyl)cyclobutyl]-1H-pyrazol-3-yl}-1,6-naphthyridin-7-yl)pyrimidine-2-carboxamide] | 424 | > 10000 | > 10000 | > 10000
14 | CO[C@H]1C[C@@](CC#N)(n2ccc(-c3nc(-c4ccc(=O)[nH]c4)cc4ncccc34)n2)C1 [Example 247, (cis-3-methoxy-1-{3-[7-(6-oxo-1,6-dihydropyridin-3-yl)-1,6-naphthyridin-5-yl]-1H-pyrazol-1-yl}cyclobutyl)acetonitrile] | 49 | 1340 | 778 | > 10000

Further molecules by falling IC50 (TYK2), results first:

Row | IC50 (TYK2) [nM] | IC50 (JAK1) [nM] | IC50 (JAK2) [nM] | IC50 (JAK3) [nM] | SMILES
15 | 3390 | > 10000 | > 10000 | > 10000 | N#CC[C@]1(n2ccc(-c3nc(-c4cc(N)cnn4)cc4ncccc34)n2)C[C@H](C#N)C1 [Example 241, trans-3-{3-[7-(5-aminopyridazin-3-yl)-1,6-naphthyridin-5-yl]-1H-pyrazol-1-yl}-3-(cyanomethyl)cyclobutanecarbonitrile]
16 | 2360 | > 10000 | > 10000 | > 10000 | COc1ncc(-c2cc3ncccc3c(-c3ccn(C4(CC#N)CN(CC(F)(F)F)C4)n3)n2)cn1 [Example 236, [3-{3-[7-(2-methoxypyrimidin-5-yl)-1,6-naphthyridin-5-yl]-1H-pyrazol-1-yl}-1-(2,2,2-trifluoroethyl)azetidin-3-yl]acetonitrile]
17 | 1920 | > 10000 | 8970 | > 10000 | CS(=O)(=O)N1CC(CC#N)(n2ccc(-c3nc(-c4cnc(N)nc4)cc4ncccc34)n2)C1 [Example 238, [3-{3-[7-(2-aminopyrimidin-5-yl)-1,6-naphthyridin-5-yl]-1H-pyrazol-1-yl}-1-(methylsulfonyl)azetidin-3-yl]acetonitrile]
18 | 704 | 4350 | 6630 | > 10000 | CC(=O)Nc1cc(-c2cc3ncccc3c(-c3ccn(C4(CC#N)CN(S(C)(=O)=O)C4)n3)n2)cnc1C [Example 228, N-[5-(5-{1-[3-(cyanomethyl)-1-(methylsulfonyl)azetidin-3-yl]-1H-pyrazol-3-yl}-1,6-naphthyridin-7-yl)-2-methylpyridin-3-yl]acetamide]
19 | 112 | 3300 | 929 | > 10000 | N#CCC1(n2ccc(-c3nc(-c4ccc(O)c(C(N)=O)n4)cc4ncccc34)n2)CC(C#N)C1 (stereo not drawn) [Example 226, 6-(5-{1-[trans-3-cyano-1-(cyanomethyl)cyclobutyl]-1H-pyrazol-3-yl}-1,6-naphthyridin-7-yl)-3-hydroxypyridine-2-carboxamide]
20 | 48 | 2220 | 726 | > 10000 | N#CC[C@]1(n2ccc(-c3nc(-c4ccnc(C(N)=O)n4)cc4ncccc34)n2)C[C@H](C#N)C1 [Example 243, 4-(5-{1-[trans-3-cyano-1-(cyanomethyl)cyclobutyl]-1H-pyrazol-3-yl}-1,6-naphthyridin-7-yl)pyrimidine-2-carboxamide]
21 | 33 | 1120 | 451 | > 10000 | CS(=O)(=O)N1CC(CC#N)(n2ccc(-c3nc(-c4ccc(N)nc4N)cc4ncccc34)n2)C1 [Example 230, [3-{3-[7-(2,6-diaminopyridin-3-yl)-1,6-naphthyridin-5-yl]-1H-pyrazol-1-yl}-1-(methylsulfonyl)azetidin-3-yl]acetonitrile]
22 | 32 | 554 | 971 | > 10000 | N#CCC1(n2ccc(-c3nc(-c4ccc(=O)[nH]c4)cc4ncccc34)n2)CN(S(=O)(=O)C2CC2)C1 [Example 246, [1-(cyclopropylsulfonyl)-3-{3-[7-(6-oxo-1,6-dihydropyridin-3-yl)-1,6-naphthyridin-5-yl]-1H-pyrazol-1-yl}azetidin-3-yl]acetonitrile]
23 | 21 | 230 | 93 | 6650 | Cc1cc(-c2cc3ncccc3c(-c3ccn([C@]4(CC#N)C[C@H](C#N)C4)n3)n2)cc(N)n1 [Example 221, cis-3-{3-[7-(2-amino-6-methylpyridin-4-yl)-1,6-naphthyridin-5-yl]-1H-pyrazol-1-yl}-3-(cyanomethyl)cyclobutanecarbonitrile]
24 | 11 | 220 | 131 | > 10000 | CS(=O)(=O)N1CC(CC#N)(n2ccc(-c3nc(-c4ccc(=O)[nH]c4)cc4ncccc34)n2)C1 [Example 245, [1-(methylsulfonyl)-3-{3-[7-(6-oxo-1,6-dihydropyridin-3-yl)-1,6-naphthyridin-5-yl]-1H-pyrazol-1-yl}azetidin-3-yl]acetonitrile]
